Test results from patent US8614201B2 (Janssen Pharmaceutica NV, priority 2009, dated 2013).

Each compound was assayed against T1, Human TRPA1 (Homo sapiens, UniProt O75762) (assay: Alternative TRPA1 Ca2+ fluorometry assay (hTRPA1/TREx-HEK293 cells, Fluo-4, FDSS 6000)). Details: Fluo-4-AM, agonist 6,11-dihydro-5H-dibenzo[b,e]azepine-10-carboxylic acid methyl ester 25 nM, procedure used for Examples 184, 190 to 192, 194 to 316.
T1 sequence (O75762 whole entry): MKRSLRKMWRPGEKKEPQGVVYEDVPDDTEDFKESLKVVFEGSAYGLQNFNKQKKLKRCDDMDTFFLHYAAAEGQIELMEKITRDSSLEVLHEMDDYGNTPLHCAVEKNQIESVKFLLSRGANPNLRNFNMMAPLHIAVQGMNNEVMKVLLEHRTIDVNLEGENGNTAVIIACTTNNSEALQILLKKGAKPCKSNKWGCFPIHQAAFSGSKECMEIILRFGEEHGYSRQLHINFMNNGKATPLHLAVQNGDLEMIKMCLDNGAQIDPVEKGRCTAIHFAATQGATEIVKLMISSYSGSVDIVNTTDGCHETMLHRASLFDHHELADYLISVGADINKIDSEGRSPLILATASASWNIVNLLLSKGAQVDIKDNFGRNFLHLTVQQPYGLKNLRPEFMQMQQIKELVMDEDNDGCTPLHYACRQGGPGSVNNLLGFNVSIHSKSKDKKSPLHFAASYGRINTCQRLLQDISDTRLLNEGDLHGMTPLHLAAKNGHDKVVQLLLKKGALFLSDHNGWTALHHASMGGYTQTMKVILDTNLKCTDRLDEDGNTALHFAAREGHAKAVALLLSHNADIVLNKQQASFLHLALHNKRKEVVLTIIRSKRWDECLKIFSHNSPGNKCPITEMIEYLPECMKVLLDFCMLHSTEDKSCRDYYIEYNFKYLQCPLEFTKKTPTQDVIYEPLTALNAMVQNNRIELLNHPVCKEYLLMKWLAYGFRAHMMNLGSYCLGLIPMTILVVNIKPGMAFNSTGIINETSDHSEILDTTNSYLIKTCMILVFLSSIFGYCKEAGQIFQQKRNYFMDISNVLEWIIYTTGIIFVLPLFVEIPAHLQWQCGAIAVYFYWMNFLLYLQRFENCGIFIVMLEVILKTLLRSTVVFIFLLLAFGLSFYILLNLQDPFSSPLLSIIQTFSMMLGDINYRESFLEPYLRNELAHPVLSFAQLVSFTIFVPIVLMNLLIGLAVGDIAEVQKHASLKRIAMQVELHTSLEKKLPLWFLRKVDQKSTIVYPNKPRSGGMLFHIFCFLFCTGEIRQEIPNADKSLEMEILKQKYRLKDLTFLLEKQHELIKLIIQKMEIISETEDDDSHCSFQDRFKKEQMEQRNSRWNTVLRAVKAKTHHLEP
Assay type: cell-based
Design: expressed in transfected cells
Experimental: In alternative embodiments, the assay was performed using the following procedure for Examples 184, 190 to 192, and 194 to 316:
The human TRPA1 gene was cloned into the pT-Rex-Dest30 inducible vector and stably transfected in T-Rex™-293 cells (Invitrogen, Merelbeke, Belgium). This tetracycline inducible hTRPA1 expression system was used in order to prevent CA^2+ overload in the cultured cells due to sustained TRPA1 expression. hTRPA1/TREx-HEK293 cells (referred to as jTRPA1 cells in the following text) were maintained under standard sterile cell culture conditions. The culture medium for the jTRPA1-HEK cells was DMEN (Gibco BRL, Invitrogen, Merelbeke, Belgium) supplemented with 5 g/l gengticin (Gibco), 5 mL/l blasticidin (Invitorgen), 14.6 g/l L-Glutamine (200 mMl; Gibco), 5 g/l penicillin/streptomycin (5.10-6 IU/I, Gibco), 5.5 g/l pyruvic acid (Gibco) and 10% foetal calf serum (Hyclone, Logan Utah, USA).
For Ca^2+ fluorometry experiments, hTRPA1-HEK cells were resuspended in HBSS seeding medium: HBSS (with CaCl2 and MgCl2: Gibco) supplemented with 14.6 g/l L-Glutamine (200 mM; Gibco), 5 g/l penicillin/streptomycin (5.10-6 IU/l. Gibco), 5.5 g/l pyruvic acid (Gibco) and 10% foetal calf serum (heat inactivated for 30 minutes at 56° C.; Hyclone, Logan Utah, USA). The cells were seeded in poly-D-lysine-coated 384-well round bottom polypropylene plates (Costar Corning, Data Packaging, Cambridge Mass., USA) at 12000 cells/well. Fifty ng/ml tetracycline was added to induce the hTRPA1 expression 24 h before the experiment.
The cells were loaded with 5 mg/l Fluo-4-AM (Molecular Probes, Invitorgen, Merelbeke, Belgium) dissolved in HBSS seeding medium supplemented with 0.7 g/l Probenecid (Sigma) and incubated for 1 h at 37° C. and subsequently at 20° C. for 1 to 2 h. The fluorescence was measured in the FDSS 6000 imaging based plate reader (Hamamutsu Photonics K.K., Hamamutsu City, Japan). The excitation wavelength was 488 nm and the emission wavelength 540 nm. After a control period of 12 seconds the inventive compounds were added and the Ca^2+ signal was measured within 14 minutes after application. Finally, a TRPA1 agonist, 6,11-dihydro-5H-dibenzo[b,e]azepine-10-carboxylic acid methyl ester, was added at a final concentration of 25 nM. The emission ratio was calculated by dividing the emission signal (Em540) by the first EM540 signal of the control period to compensate for the background fluorescence. […] For intracellular Ca^2+ measurements, a compound stock solution (10 to 100 mM) was further diluted in DMSO in order to obtain a final 1% DMSO concentration in the extracellular solution.
An IC50 of 0.575 µM was found for CCOC(=O)C1CCN(c2nc(CNC(=O)[C@@H]3CCCN3S(=O)(=O)c3ccc(F)cc3)cc(-c3ccc(C(F)(F)F)cc3)n2)CC1 (racemic) [Example 194, 1-[4-({[1-(4-Fluoro-benzenesulfonyl)-pyrrolidine-2S-carbonyl]-amino}-methyl)-6-(4-trifluoromethyl-phenyl)-pyrimidin-2-yl]-piperidine-4(R,S)-carboxylic acid ethyl ester] in this work.
An IC50 of ~0.033 µM was found for O=C(NCc1cc(-c2ccc(C(F)(F)F)cc2)nc(C(F)(F)F)n1)[C@@H]1CCCN1S(=O)(=O)c1ccc(F)cc1 [Example 184, 1-(4-Fluoro-benzenesulfonyl)-pyrrolidine-2S-carboxylic acid [2-trifluoromethyl-6-(4-trifluoromethyl-phenyl)-pyrimidin-4-ylmethyl]-amide] in this work.
An IC50 of ~1.95 µM was found for O=C(NCc1cc(-c2ccc(C(F)(F)F)cc2)nc(N2CCC[C@H]2CO)n1)[C@@H]1CCCN1S(=O)(=O)c1ccc(F)cc1 [Example 190, 1-(4-Fluoro-benzenesulfonyl)-pyrrolidine-2S-carboxylic acid [2-(2S-hydroxymethyl-pyrrolidin-1-yl)-6-(4-trifluoromethyl-phenyl)-pyrimidin-4-ylmethyl]-amide] in this work.
An IC50 of 2.14 µM was found for O=C(NCc1cc(-c2ccc(C(F)(F)F)cc2)nc(N[C@@H](CO)Cc2ccccc2)n1)[C@@H]1CCCN1S(=O)(=O)c1ccc(F)cc1 [Example 191, 1-(4-Fluoro-benzenesulfonyl)-pyrrolidine-2S-carboxylic acid [2-(1S-hydroxymethyl-2-phenyl-ethylamino)-6-(4-trifluoromethyl-phenyl)-pyrimidin-4-ylmethyl]-amide] in this work.
An IC50 of ~0.588 µM was found for O=C(NCc1cc(-c2ccc(C(F)(F)F)cc2)nc(NC2CC2)n1)[C@@H]1CCCN1S(=O)(=O)c1ccc(F)cc1 [Example 192, 1-(4-Fluoro-benzenesulfonyl)-pyrrolidine-2S-carboxylic acid [2-cyclopropylamino-6-(4-trifluoromethyl-phenyl)-pyrimidin-4-ylmethyl]-amide] in this work.
An IC50 of 0.617 µM was found for O=C(NCc1cc(-c2ccc(C(F)(F)F)cc2)nc(NCCc2ccc(Cl)cc2Cl)n1)[C@@H]1CCCN1S(=O)(=O)c1ccc(F)cc1 [Example 195, 1-(4-Fluoro-benzenesulfonyl)-pyrrolidine-2S-carboxylic acid [2-[2-(2,4-dichloro-phenyl)-ethylamino]-6-(4-trifluoromethyl-phenyl)-pyrimidin-4-ylmethyl]-amide] in this work.
An IC50 of ~4.79 µM was found for CN1CCCC1CCNc1nc(CNC(=O)[C@@H]2CCCN2S(=O)(=O)c2ccc(F)cc2)cc(-c2ccc(C(F)(F)F)cc2)n1 (stereo partly drawn) [Example 196, 1-(4-Fluoro-benzenesulfonyl)-pyrrolidine-2S-carboxylic acid [2-[2-(1-methyl-pyrrolidin-2(R,S)-yl)-ethylamino]-6-(4-trifluoromethyl-phenyl)-pyrimidin-4-ylmethyl]-amide] in this work.
An IC50 of ~1.15 µM was found for COc1ccc(CCNc2nc(CNC(=O)[C@@H]3CCCN3S(=O)(=O)c3ccc(F)cc3)cc(-c3ccc(C(F)(F)F)cc3)n2)cc1OC [Example 197, 1-(4-Fluoro-benzenesulfonyl)-pyrrolidine-2S-carboxylic acid [2-[2-(3,4-dimethoxy-phenyl)-ethylamino]-6-(4-trifluoromethyl-phenyl)-pyrimidin-4-ylmethyl]-amide] in this work.
An IC50 of ~3.02 µM was found for CN1CCCN(c2nc(CNC(=O)[C@@H]3CCCN3S(=O)(=O)c3ccc(F)cc3)cc(-c3ccc(C(F)(F)F)cc3)n2)CC1 [Example 198, 1-(4-Fluoro-benzenesulfonyl)-pyrrolidine-2S-carboxylic acid [2-(4-methyl-[1,4]diazepan-1-yl)-6-(4-trifluoromethyl-phenyl)-pyrimidin-4-ylmethyl]-amide] in this work.
An IC50 of ~3.31 µM was found for NS(=O)(=O)c1ccc(CCNc2nc(CNC(=O)[C@@H]3CCCN3S(=O)(=O)c3ccc(F)cc3)cc(-c3ccc(C(F)(F)F)cc3)n2)cc1 [Example 199, 1-(4-Fluoro-benzenesulfonyl)-pyrrolidine-2S-carboxylic acid [2-[2-(4-sulfamoyl-phenyl)-ethylamino]-6-(4-trifluoromethyl-phenyl)-pyrimidin-4-ylmethyl]-amide] in this work.
An IC50 of 3.31 µM was found for C#CCNc1nc(CNC(=O)[C@@H]2CCCN2S(=O)(=O)c2ccc(F)cc2)cc(-c2ccc3c(c2)OCO3)n1 [Example 200, 1-(4-Fluoro-benzenesulfonyl)-pyrrolidine-2S-carboxylic acid (6-benzo[1,3]dioxol-5-yl-2-prop-2-ynylamino-pyrimidin-4-ylmethyl)-amide] in this work.
An IC50 of 8.13 µM was found for O=C(NCc1cc(-c2ccc3c(c2)OCO3)nc(NCc2cccnc2)n1)[C@@H]1CCCN1S(=O)(=O)c1ccc(F)cc1 [Example 201, 1-(4-Fluoro-benzenesulfonyl)-pyrrolidine-2S-carboxylic acid {6-benzo[1,3]dioxol-5-yl-2-[(pyridin-3-ylmethyl)-amino]-pyrimidin-4-ylmethyl}-amide] in this work.
An IC50 of ~2.4 µM was found for CCCCNc1nc(CNC(=O)[C@@H]2CCCN2S(=O)(=O)c2ccc(F)cc2)cc(-c2ccc3c(c2)OCO3)n1 [Example 202, 1-(4-Fluoro-benzenesulfonyl)-pyrrolidine-2S-carboxylic acid (6-benzo[1,3]dioxol-5-yl-2-butylamino-pyrimidin-4-ylmethyl)-amide] in this work.
An IC50 of ~6.46 µM was found for O=C(NCc1cc(-c2ccc3c(c2)OCO3)nc(NCCc2ccccn2)n1)[C@@H]1CCCN1S(=O)(=O)c1ccc(F)cc1 [Example 203, 1-(4-Fluoro-benzenesulfonyl)-pyrrolidine-2S-carboxylic acid [6-benzo[1,3]dioxol-5-yl-2-(2-pyridin-2-yl-ethylamino)-pyrimidin-4-ylmethyl]-amide] in this work.
An IC50 of ~2.69 µM was found for O=C(NCc1cc(-c2ccc3c(c2)OCO3)nc(NC2CCCC2)n1)[C@@H]1CCCN1S(=O)(=O)c1ccc(F)cc1 [Example 204, 1-(4-Fluoro-benzenesulfonyl)-pyrrolidine-2S-carboxylic acid (6-benzo[1,3]dioxol-5-yl-2-cyclopentylamino-pyrimidin-4-ylmethyl)-amide] in this work.
An IC50 of ~1.78 µM was found for CCOC(=O)C1CCN(c2nc(CNC(=O)[C@@H]3CCCN3S(=O)(=O)c3ccc(F)cc3)cc(-c3ccc4c(c3)OCO4)n2)CC1 [Example 205, 1-[4-Benzo[1,3]dioxol-5-yl-6-({[1-(4-fluoro-benzenesulfonyl)-pyrrolidine-2S-carbonyl]-amino}-methyl)-pyrimidin-2-yl]-piperidine-4-carboxylic acid ethyl ester] in this work.
An IC50 of 4.47 µM was found for O=C(NCc1cc(-c2ccc3c(c2)OCO3)nc(N2CCN(c3ccccn3)CC2)n1)[C@@H]1CCCN1S(=O)(=O)c1ccc(F)cc1 [Example 206, 1-(4-Fluoro-benzenesulfonyl)-pyrrolidine-2S-carboxylic acid [6-benzo[1,3]dioxol-5-yl-2-(4-pyridin-2-yl-piperazin-1-yl)-pyrimidin-4-ylmethyl]-amide] in this work.
An IC50 of 9.12 µM was found for O=C(NCc1cc(-c2ccc3c(c2)OCO3)nc(N2CCOCC2)n1)[C@@H]1CCCN1S(=O)(=O)c1ccc(F)cc1 [Example 207, 1-(4-Fluoro-benzenesulfonyl)-pyrrolidine-2S-carboxylic acid (6-benzo[1,3]dioxol-5-yl-2-morpholin-4-yl-pyrimidin-4-ylmethyl)-amide] in this work.

Each compound was assayed against T1, Human TRPA1 (assay: Assay 1: In vitro cellular testing of TRPA1 modulation (CHO-TREx, Fluo-3 calcium fluorescence, AITC agonist)). Details: CHO-TREx cells expressing human TRPA1; Fluo-3 fluorescence (FLIPR/Tetra); agonist 15 μM allyl isothiocyanate (AITC); 30 minute antagonist incubation.
Assay type: cell-based
Design: expressed in transfected cells; host or cells: CHO-TREx cells (Invitrogen), vector pcDNA4/TO
In short: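 Tetracycline-induced CHO-TREx cells stably expressing human TRPA1, loaded with 4 μM Fluo-3 AM, preincubated 30 min with compound (serial dilution typically from 10 μM, three-fold steps) in HEPES saline pH 7.4. Fluorescence change over 3 min after 15 μM AITC; IC50 from Hill fit versus no-antagonist and 10 μM ruthenium red controls.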
An IC50 of 0.082 µM was found for CC1CCCN1c1cc(CNC(=O)[C@@H]2C=CCN2S(=O)(=O)c2ccc(Cl)s2)cc(-c2ccc(C(F)(F)F)cc2)n1 (stereo partly drawn) [Example 417, (2S)-1-[(5-Chlorothiophen-2-yl)sulfonyl]-N-({2-(2-methylpyrrolidin-1-yl)-6-[4-(trifluoromethyl)phenyl]pyridin-4-yl}methyl)-2,5-dihydro-1H-pyrrole-2-carboxamide] in this work.
